The values below come from paper PMC3042617, “Identification of Two Novel HLA-A*0201-Restricted CTL Epitopes Derived from MAGE-A4” (Clinical and Developmental Immunology, 2011).

In one assay the target is HLA-A*0201 molecule (Homo sapiens, UniProt P04439, D140Y/D185E/D98H/E176V/E277Q/G131W/G231S/I119V/I121R/I166T/I218V/L300P/L318F/N151K/N90K/P208A/P217A/Q86G/Q94H/R138H/R169H/T345S). Put plainly: T2-cell-peptide binding test (affinity of peptide for HLA-A*0201). Particulars: various peptide concentrations, 3 μg/mL human β2m, serum-free RPMI 1640, 37°C, 16 h, flow cytometry, three replicates, repeated three times. Here is the method: The affinity of peptides for HLA-A*0201 was measured as described previously. Briefly, T2 cells were incubated with various concentrations of each peptide and 3 μg/mL human β2m in serum-free RPMI 1640 medium at 37°C for 16 h. Then, the cells were washed and stained with antiHLA-A2 mAb and FITC-labeled goat anti-mouse IgG. The expression of HLA-A*0201 on T2 cells was determined with FACS Calibur flow cytometer (Becton Dickinson, USA). For each peptide concentration, the percent mean fluorescence index (% MFI) increase of HLA-A*0201 molecule was calculated as follows: % MFI increase = [(MFI with the given peptide − MFI without peptide)/(MFI without peptide)] × 100.
Figure 1 Binding affinity of peptides for HLA-A*0201 molecule. T2 cells were incubated with indicated concentrations of the peptides in serum-free RPMI 1640 medium supplied with 3 μg/mL human β2m at 37°C for 16 h. And then the cells were stained with anti-HLA-A2 mAb and FITC-labeled goat antimouse IgG. The expression of HLA-A*0201 on T2 cells was determined with FACS Calibur flow cytometer. The peptides HBcAg18–27 and OVA257–264 were taken as positive control and negative control, respectively. Each sample was measured in three replicates and the experiment was repeated three times.
(Flow cytometry measures light scatter and fluorescence of single cells or particles in a stream.)

Assay [1] concerns LB1751-MEL cells. Briefly: Cytotoxicity (LDH release) of peptide-stimulated human PBMCs against LB1751-MEL. The assay is classed as cell-based. The following applies: PBMCs of healthy HLA-A*0201 donors, E/T 50/1, 25/1, 12.5/1, 4 h. The procedure: PBMCs were isolated from the buffy coat of heparinized whole blood samples of healthy HLA-A*0201 donors by density gradient centrifugation on the Ficoll-Paque PREMIUM (GE Healthcare Bio-Sciences AB, Uppsala, Sweden). The effector lymphocytes and dendritic cells (DCs) were prepared by our published method. All donors signed written, informed consent to provide whole blood samples used in the study. Approval of the study was obtained from the relevant ethical committees and was in accordance with the Declaration of Helsinki.
(§1) Three to five days after the final stimulation, the cytotoxic activity of the effector cells was evaluated by a lactate dehydrogenase release assay using Cytotox 96 Non-Radioactive Cytotoxicity Assay kit (Promega, USA). In brief, 1×10^4 target cells (LB1751-MEL, MCF-7 or MCF-7A4) in 50 μL RPMI 1640 containing 5% fetal calf serum (FCS) was placed in the wells of a 96-well round-bottom plate, then 50 μL of various concentrations of effector cells was added at different effector to target (E/T) ratios (50/1, 25/1, and 12.5/1). After 4 h incubation at 37°C, the supernatant was collected to assay lactate dehydrogenase (LDH) release by OD490 measurement according to the manufacturer's instructions. Experiments were performed in triplicates and the percentage of lysis was calculated as % Lysis = [(experimental LDH release − effector spontaneous LDH release − target spontaneous LDH release)/(target maximum LDH release − target spontaneous LDH release)] × 100.
Figure 2 Induction of peptide-specific CTLs from human PBMCs. PBMCs from healthy HLA-A*0201 donors were first stimulated with peptide-pulsed autologous DCs and then restimulated with peptide-pulsed autologous PBMCs. After three to five days of the final stimulation, the stimulated PBMCs were used as effector cells to detect their cytotoxic activity against tumor cells at the indicated E/T ratios in a cytotoxicity assay. The irrelevant peptide HBcAg18–27 was taken as negative control. Each sample was measured in three replicates and the experiment was repeated three times. […] (c) P1- and P3-stimulated PBMCs mediated lysis of MCF-7A4 cells. (d) P1- and P3-stimulated PBMCs mediated lysis of MCF-7 cells.
(In general: LDH leaks from cells whose membrane has failed.)

For assay [2], the system named is peptide/HLA-A*0201 complex. Put plainly: Peptide/HLA-A*0201 complex stability on T2 cells. The assay is classed as binding, human. The following applies: for % MFI increase at indicated time point (h): 0 / DC50 (half-time of the peptide/HLA-A*0201 complex): T2 cells, 37°C; for % MFI increase at indicated time point (h): 0: 100 μM peptide overnight, 100 ng/mL human β2m, Brefeldin A 10 μg/mL 1 h, then 0 h at 37°C, anti-HLA-A2 mAb staining; for DC50 (half-time of the peptide/HLA-A*0201 complex): 100 μM peptide, time points 0-8 h; for % MFI increase at indicated time point (h): 2 / % MFI increase at indicated time point (h): 4 / % MFI increase at indicated time point (h): 6 / % MFI increase at indicated time point (h): 8: as at 0 h; for % MFI increase at indicated time point (h): 2: then 2 h at 37°C after Brefeldin A; for % MFI increase at indicated time point (h): 4: then 4 h at 37°C after Brefeldin A; for % MFI increase at indicated time point (h): 6: then 6 h at 37°C after Brefeldin A; for % MFI increase at indicated time point (h): 8: then 8 h at 37°C after Brefeldin A. The procedure: As previously described, T2 cells (10^6/mL) were incubated overnight with 100 μM of each peptide in serum-free RPMI 1640 medium supplemented with 100 ng/mL human β2m at 37°C. Then, they were washed to remove free peptides and incubated with 10 μg/mL of Brefeldin A (Sigma-Aldrich, USA) for 1 h to block newly synthesized HLA-A*0201 molecules to be expressed on cell surface, washed and incubated at 37°C for 0, 2, 4, 6, or 8 h. Subsequently, the cells were stained with the anti-HLA-A2 mAb to evaluate the expression of HLA-A*0201 molecules.

A further assay relates to MCF-7A4 cells. Put plainly: Cytotoxicity (LDH release) of peptide-stimulated human PBMCs against MCF-7A4. The assay is classed as cell-based. Particulars: 4 h. The source says:
To establish a cell line expressing both HLA-A*0201 and MAGE-A4, MCF-7 cells were transfected with plasmid pCI-MAGEA4 using Lipofectamine 2000 (Invitrogen, USA) and then selected with G418. The expression of MAGE-A4 in the established cell line (designated MCF-7A4) was confirmed by reverse transcription-PCR and western blotting.
PBMCs were isolated from the buffy coat of heparinized whole blood samples of healthy HLA-A*0201 donors by density gradient centrifugation on the Ficoll-Paque PREMIUM (GE Healthcare Bio-Sciences AB, Uppsala, Sweden). The effector lymphocytes and dendritic cells (DCs) were prepared by our published method. All donors signed written, informed consent to provide whole blood samples used in the study. […]
Three to five days after the final stimulation, the cytotoxic activity of the effector cells was evaluated by a lactate dehydrogenase release assay using Cytotox 96 Non-Radioactive Cytotoxicity Assay kit (Promega, USA). […] Experiments were performed in triplicates and the percentage of lysis was calculated as % Lysis = [(experimental LDH release − effector spontaneous LDH release − target spontaneous LDH release)/(target maximum LDH release − target spontaneous LDH release)] × 100.
Figure 2 Induction of peptide-specific CTLs from human PBMCs. […] Each sample was measured in three replicates and the experiment was repeated three times. […]

The subject of assay [3] is LB1751-MEL cells. Put plainly: In vivo induction of peptide-specific CTLs in HLA-A*0201/K^b transgenic mice. The following applies: 100 μg peptide in IFA once, splenocytes after 10 days, restimulated in vitro 5 days with peptide and rmIL-2; LDH release. Here is the method: as §1
HLA-A*0201/K^b mice were immunized with 100 μg of various peptides prepared in IFA or IFA emulsion without peptide as a control. After 10 days, mice were sacrificed and splenocytes were cultured for 5 days with 10 units/mL recombinant murine interleukin-2 (rmIL-2) and […]. And then, effector cells were counted and tested for cytotoxic activity in a cytotoxicity assay.
Figure 3 In vivo induction of peptide-specific CTLs. […]

As to ALLEEEEGV [Peptide P2], the “Binding affinity for HLA-A*0201 molecule (increase of HLA-A*0201 expression on T2 cells)” value on HLA-A*0201 molecule was “lower affinity”. Besides, the “Lysis of LB1751-MEL target cells by peptide-stimulated PBMCs” value (shortened to “Lysis … by peptide-stimulated PBMCs”) in the assay on LB1751-MEL cells [1] is “could not lyse”. In assay [2], the “% MFI increase at indicated time point (h): 0” value (“% MFI increase … 0” for short) is reported as 170.07%, the “DC50 (half-time of the peptide/HLA-A*0201 complex)” value is listed as 2 h, the “% MFI increase at indicated time point (h): 2” value (“% MFI increase … 2” for short) is recorded as 84.13% and the “% MFI increase at indicated time point (h): 4” value (“% MFI increase … 4” for short) is listed as 57.09%. In addition, in assay [2], the “% MFI increase at indicated time point (h): 6” value (“% MFI increase … 6” for short) worked out at 42.34% and the “% MFI increase at indicated time point (h): 8” value (“% MFI increase … 8” for short) amounted to 31.19%.

For the substance ALPTTISFT [Peptide P4], on HLA-A*0201 molecule, the “Binding affinity for HLA-A*0201 molecule (increase of HLA-A*0201 expression on T2 cells)” value is reported as “lowest affinity”. Besides, in the assay on LB1751-MEL cells [1], the “Lysis … by peptide-stimulated PBMCs” value was “could not lyse”. Also, in assay [2], the “% MFI increase … 0” value is given as 98.80%, the “DC50 (half-time of the peptide/HLA-A*0201 complex)” value amounted to 2 h, the “% MFI increase … 2” value stood at 48.73% and the “% MFI increase … 4” value is given as 30.79%. Besides, in assay [2], the “% MFI increase … 6” value came out at 21.01% and the “% MFI increase … 8” value is 18.52%.

Regarding FLWGPRALA [Peptide P3], the “Lysis of MCF-7A4 cells (HLA-A*0201 and MAGE-A4 expressing) by peptide-primed effector cells” value in the assay with MCF-7A4 cells is “could also lyse”. For the same substance, the “Binding affinity for HLA-A*0201 molecule (increase of HLA-A*0201 expression on T2 cells)” value on HLA-A*0201 molecule is “highest affinity”. In addition, in the assay with LB1751-MEL cells [1], the “Lysis … by peptide-stimulated PBMCs” value was “could significantly lyse”. The “Lysis of LB1751-MEL target cells by splenocytes of peptide-inoculated mice” value with LB1751-MEL cells [3] is on record as “could lyse”. For the same substance, in assay [2], the “% MFI increase … 0” value is 285.66%, the “DC50 (half-time of the peptide/HLA-A*0201 complex)” value was 8 h, the “% MFI increase … 2” value amounted to 230.85% and the “% MFI increase … 4” value is given as 192.71%. In assay [2], the “% MFI increase … 6” value came to 170.05% and the “% MFI increase … 8” value was 150.56%.

For KVLEHVVRV [Peptide P1], in the assay on MCF-7A4 cells, the “Lysis of MCF-7A4 cells (HLA-A*0201 and MAGE-A4 expressing) by peptide-primed effector cells” value is on record as “could also lyse”. Also, the “Binding affinity for HLA-A*0201 molecule (increase of HLA-A*0201 expression on T2 cells)” value at HLA-A*0201 molecule is “lowest affinity”. In addition, the “Lysis … by peptide-stimulated PBMCs” value in the assay with LB1751-MEL cells [1] is listed as “could significantly lyse”. The “Lysis of LB1751-MEL target cells by splenocytes of peptide-inoculated mice” value with LB1751-MEL cells [3] was “could lyse”. Further, in assay [2], the “% MFI increase … 0” value is on record as 126.16%, the “DC50 (half-time of the peptide/HLA-A*0201 complex)” value is 4 to 6 h, the “% MFI increase … 2” value turned out to be 95.74% and the “% MFI increase … 4” value worked out at 74.98%. Besides, in assay [2], the “% MFI increase … 6” value is reported as 60.29% and the “% MFI increase … 8” value is 49.07%.

For the substance “OVA257–264: control peptide, negative control in HLA-A*0201 binding test (ESIINFEK; UniProt P01012 257-264, looked up, fragment) [reference compound]”, in the assay with HLA-A*0201 molecule, the “Binding affinity for HLA-A*0201 molecule (increase of HLA-A*0201 expression on T2 cells)” value is “did not increase”.
